Measurements reported in ChEMBL document CHEMBL5335843, “Application of tobramycin benzyl ether as an antibiotic adjuvant capable of sensitizing multidrug-resistant Gram-negative bacteria to rifampicin” (2024).

Tests used:
Assay type in all cases: functional
Pseudomonas aeruginosa [1] = test: Antibacterial activity against multi-drug resistant Pseudomonas aeruginosa clinical isolate 101243 assessed as inhibition of bacterial growth incubated for 18 hrs by two fold broth microdilution assay
Acinetobacter baumannii [2] = test: Antibacterial activity against multi-drug resistant Acinetobacter baumannii clinical isolate AB031 assessed as inhibition of bacterial growth incubated for 18 hrs by two fold broth microdilution assay
Pseudomonas aeruginosa [3] = test: Antibiotic adjuvant activity against multi-drug resistant Pseudomonas aeruginosa clinical isolate PA262 assessed as rifampicin MIC incubated for 18 hrs in presence of Rifampicin by two fold broth microdilution checkerboard assay
Escherichia coli [4] = test: Antibiotic adjuvant activity against multi-drug resistant Escherichia coli clinical isolate 107115 assessed as rifampicin MIC incubated for 18 hrs in presence of Rifampicin by two fold broth microdilution checkerboard assay
Pseudomonas aeruginosa [5] = test: Antibiotic adjuvant activity against multi-drug resistant Pseudomonas aeruginosa clinical isolate 114228 assessed as inhibition of bacterial growth incubated for 18 hrs in presence of Rifampicin by two fold broth microdilution checkerboard assay
Pseudomonas aeruginosa [6] = test: Antibiotic adjuvant activity against multi-drug resistant Pseudomonas aeruginosa clinical isolate PA262 assessed as inhibition of bacterial growth incubated for 18 hrs in presence of Rifampicin by two fold broth microdilution checkerboard assay
Escherichia coli [7] = test: Antibiotic adjuvant activity against multi-drug resistant Escherichia coli clinical isolate 94474 assessed as inhibition of bacterial growth incubated for 18 hrs in presence of Rifampicin by two fold broth microdilution checkerboard assay
Acinetobacter baumannii [8] = test: Antibiotic adjuvant activity against multi-drug resistant Acinetobacter baumannii clinical isolate AB031 assessed as inhibition of bacterial growth incubated for 18 hrs in presence of Rifampicin by two fold broth microdilution checkerboard assay
Pseudomonas aeruginosa [9] = test: Antibiotic adjuvant activity against multi-drug resistant Pseudomonas aeruginosa clinical isolate PA259 assessed as fold potentiation incubated for 18 hrs in presence of Rifampicin by two fold broth microdilution checkerboard assay
Acinetobacter baumannii [10] = test: Antibiotic adjuvant activity against multi-drug resistant Acinetobacter baumannii clinical isolate 92247 assessed as fold potentiation incubated for 18 hrs in presence of Rifampicin by two fold broth microdilution checkerboard assay
Pseudomonas aeruginosa [11] = test: Antibiotic adjuvant activity against multi-drug resistant Pseudomonas aeruginosa clinical isolate 101243 assessed as fractional inhibitory concentration index incubated for 18 hrs in presence of Rifampicin by two fold broth microdilution checkerboard assay
Pseudomonas aeruginosa [12] = test: Antibiotic adjuvant activity against multi-drug resistant Pseudomonas aeruginosa clinical isolate PA259 assessed as fractional inhibitory concentration index incubated for 18 hrs in presence of Rifampicin by two fold broth microdilution checkerboard assay
Escherichia coli [13] = test: Antibiotic adjuvant activity against multi-drug resistant Escherichia coli clinical isolate 107115 assessed as fractional inhibitory concentration index incubated for 18 hrs in presence of Rifampicin by two fold broth microdilution checkerboard assay
Pseudomonas aeruginosa [14] = test: Antibiotic adjuvant activity against multi-drug resistant Pseudomonas aeruginosa clinical isolate PA101243 assessed as minocycline MIC incubated for 18 hrs in presence of minocycline by two fold broth microdilution checkerboard assay
Pseudomonas aeruginosa [15] = test: Antibiotic adjuvant activity against multi-drug resistant Pseudomonas aeruginosa clinical isolate PA114228 assessed as inhibition of bacterial growth incubated for 18 hrs in presence of minocycline by two fold broth microdilution checkerboard assay
Pseudomonas aeruginosa [16] = test: Antibiotic adjuvant activity against multi-drug resistant Pseudomonas aeruginosa clinical isolate PA262 assessed as inhibition of bacterial growth incubated for 18 hrs in presence of minocycline by two fold broth microdilution checkerboard assay
Pseudomonas aeruginosa [17] = test: Antibiotic adjuvant activity against multi-drug resistant Pseudomonas aeruginosa clinical isolate PA264 assessed as inhibition of bacterial growth incubated for 18 hrs in presence of minocycline by two fold broth microdilution checkerboard assay
Escherichia coli [18] = test: Antibiotic adjuvant activity against multi-drug resistant Escherichia coli clinical isolate EC107115 assessed as fold potentiation incubated for 18 hrs in presence of minocycline by two fold broth microdilution checkerboard assay
Escherichia coli [19] = test: Antibiotic adjuvant activity against multi-drug resistant Escherichia coli clinical isolate EC94474 assessed as fractional inhibitory concentration index incubated for 18 hrs in presence of minocycline by two fold broth microdilution checkerboard assay
Escherichia coli [20] = test: Antibiotic adjuvant activity against multi-drug resistant Escherichia coli clinical isolate EC107115 assessed as doxycycline MIC incubated for 18 hrs in presence of doxycycline by two fold broth microdilution checkerboard assay
Escherichia coli [21] = test: Antibiotic adjuvant activity against multi-drug resistant Escherichia coli clinical isolate EC94474 assessed as doxycycline MIC incubated for 18 hrs in presence of doxycycline by two fold broth microdilution checkerboard assay
Pseudomonas aeruginosa [22] = test: Antibiotic adjuvant activity against multi-drug resistant Pseudomonas aeruginosa clinical isolate PA264 assessed as inhibition of bacterial growth incubated for 18 hrs in presence of doxycycline by two fold broth microdilution checkerboard assay
Escherichia coli [23] = test: Antibiotic adjuvant activity against multi-drug resistant Escherichia coli clinical isolate EC94474 assessed as fold potentiation incubated for 18 hrs in presence of doxycycline by two fold broth microdilution checkerboard assay
Enterococcus faecium = test: Antibacterial activity against Enterococcus faecium 128149 assessed as inhibition of bacterial growth incubated for 18 hrs by two fold broth microdilution assay
Staphylococcus aureus [24] = test: Antibiotic adjuvant activity against methicilin-resistant Staphylococcus aureus assessed as rifampicin MIC incubated for 18 hrs in presence of rifampicin by two fold broth microdilution checkerboard assay
Staphylococcus aureus [25] = test: Antibiotic adjuvant activity against methicilin-resistant Staphylococcus aureus assessed as inhibition of bacterial growth incubated for 18 hrs in presence of rifampicin by two fold broth microdilution checkerboard assay
Staphylococcus aureus [26] = test: Antibiotic adjuvant activity against methicilin-resistant Staphylococcus aureus assessed as fold potentiation incubated for 18 hrs in presence of rifampicin by two fold broth microdilution checkerboard assay
Pseudomonas aeruginosa [27] = test: Antibiotic adjuvant activity against Pseudomonas aeruginosa PAO1 assessed as fold potentiation incubated for 18 hrs in presence of Rifampicin by two fold broth microdilution checkerboard assay
Acinetobacter baumannii [28] = test: Antibiotic adjuvant activity against Acinetobacter baumannii ATCC 17978 assessed as fold potentiation incubated for 18 hrs in presence of novobiocin by two fold broth microdilution checkerboard assay
Pseudomonas aeruginosa [29] = test: Antibiotic adjuvant activity against Pseudomonas aeruginosa PAO1 assessed as fold potentiation incubated for 18 hrs in presence of minocycline by two fold broth microdilution checkerboard assay
Acinetobacter baumannii [30] = test: Antibiotic adjuvant activity against Acinetobacter baumannii ATCC 17978 assessed as fold increase in MIC incubated for 18 hrs in presence of rifampicin and CAMHB Mg2+ media by two fold broth microdilution checkerboard assay
Acinetobacter baumannii [31] = test: Antibiotic adjuvant activity against Acinetobacter baumannii ATCC 17978 assessed as fold potentiation incubated for 18 hrs in presence of rifampicin and CAMHB Na+ media by two fold broth microdilution checkerboard assay
Acinetobacter baumannii [32] = test: Antibiotic adjuvant activity against Acinetobacter baumannii ATCC 17978 assessed as fold potentiation at 16 ug/ml incubated for 18 hrs in presence of rifampicin and 25 % FBS media by two fold broth microdilution checkerboard assay; conditions: dose 16 µg/ml
Escherichia coli [33] = test: Antibiotic adjuvant activity against Escherichia coli ATCC 25922 assessed as novobiocin MIC incubated for 18 hrs in presence of novobiocin by two fold broth microdilution checkerboard assay
Acinetobacter baumannii [34] = test: Antibiotic adjuvant activity against Acinetobacter baumannii ATCC 17978 assessed as novobiocin MIC incubated for 18 hrs in presence of novobiocin by two fold broth microdilution checkerboard assay
Pseudomonas aeruginosa [35] = test: Antibiotic adjuvant activity against Pseudomonas aeruginosa PAO1 assessed as minocycline MIC incubated for 18 hrs in presence of minocycline by two fold broth microdilution checkerboard assay

## Cl.NC[C@H]1O[C@H](O[C@H]2[C@H](OCc3ccccc3)[C@@H](O[C@H]3O[C@H](COCc4ccccc4)[C@@H](OCc4ccccc4)[C@H](N)[C@H]3OCc3ccccc3)[C@H](N)C[C@@H]2N)[C@H](N)C[C@@H]1OCc1ccccc1
Pseudomonas aeruginosa [1]
  MIC: 64 µg/mL
Acinetobacter baumannii [2]
  MIC: 32 µg/mL
Pseudomonas aeruginosa [3]
  MIC: 512 µg/mL
Escherichia coli [4]
  MIC: 0.125 µg/mL
Pseudomonas aeruginosa [5]
  MIC: 8 µg/mL
Pseudomonas aeruginosa [6]
  MIC: 8 µg/mL
Escherichia coli [7]
  MIC: 4 µg/mL
Acinetobacter baumannii [8]
  MIC: 8 µg/mL
Pseudomonas aeruginosa [9]
  fold change (FC): 1
Acinetobacter baumannii [10]
  fold change (FC): 512
Pseudomonas aeruginosa [11]
  fractional inhibitory concentration index (FICI): 0.126
Pseudomonas aeruginosa [12]
  fractional inhibitory concentration index (FICI): 1.063
Escherichia coli [13]
  fractional inhibitory concentration index (FICI): 0.063
Pseudomonas aeruginosa [14]
  MIC: 64 µg/mL
Pseudomonas aeruginosa [15]
  MIC: 8 µg/mL
Pseudomonas aeruginosa [16]
  MIC: 8 µg/mL
Pseudomonas aeruginosa [17]
  MIC: 8 µg/mL
Escherichia coli [18]
  fold change (FC): 32
Escherichia coli [19]
  fractional inhibitory concentration index (FICI): 0.094
Escherichia coli [20]
  MIC: 32 µg/mL
Escherichia coli [21]
  MIC: 8 µg/mL
Pseudomonas aeruginosa [22]
  MIC: 8 µg/mL
Escherichia coli [23]
  fold change (FC): 8
Enterococcus faecium
  MIC: 16 µg/mL
Staphylococcus aureus [24]
  MIC: 256 µg/mL
Staphylococcus aureus [25]
  MIC: 4 µg/mL
Staphylococcus aureus [26]
  fold change (FC): 1
Pseudomonas aeruginosa [27]
  fold change (FC): 8
Acinetobacter baumannii [28]
  fold change (FC): 2048
Pseudomonas aeruginosa [29]
  fold change (FC): 64
Acinetobacter baumannii [30]
  fold change (FC): >=2
Acinetobacter baumannii [31]
  fold change (FC): 256
Acinetobacter baumannii [32]
  fold change (FC): 32
Escherichia coli [33]
  MIC: 0.125 µg/mL
Acinetobacter baumannii [34]
  MIC: 0.5 µg/mL
Pseudomonas aeruginosa [35]
  MIC: 0.5 µg/mL
